Data published in patent US20240327454A1, “DETERGENT AND METHOD FOR PURIFYING A BIOTHERAPEUTIC” (MEDIMMUNE, LLC, priority 2020, published 2024).

Key:
AAV6.2 cell paste = assay: Detergent lysis of AAV6.2 cell paste slurry, lysate AAV titer by qPCR; format: cell-based; settings: for Lysate AAV6 Titer: 0.5% detergent, AAV6 cell paste lot A8498, 1 hour at RT
Protocol: (§1) An AAV6.2 cell paste slurry was generated and stored at −80° C. Brij L9 (Laureth-9) was sourced from Croda International Plc. (East Yorkshire, United Kingdom). Triton X-100 was sourced from Spectrum Chemical (New Brunswick, NJ). Capto AVB resin was sourced from GE Healthcare (Piscataway, NJ). COSP filters were obtained from EMD Millipore (Burlington, MA). Sartopore 2 XLG, 0.8/0.2 um filters were obtained from Sartorius Stedim Biotech GmbH (Gottingen, Germany). All the buffer salts were sourced from Avantor Performance Chemicals (Center Valley, Pennsylvania).
(§2) For detergent lysis, the AAV6.2 cell paste was diluted to a 10% slurry with 20 mM Tris, 200 mM NaCl, 2 mM MgCl2, pH 7.5. 10% (w/w) detergent stock solution was spiked into cell slurry to bring final detergent concentration to 0.5% (v/w). Benzonase was spiked to 10 U/ml into cell slurry mixture and mixed slowly at RT for 1 hour.
(§3) AAV Purification was performed using a Capto AVB affinity column. Purification was controlled by Unicorn 7.0 software on an AKTA AVANT purchased from GE Healthcare (Piscataway, NJ). COSP POD filter was flushed with 20 mM Tris, 500 mM NaCl, 2 mM MgCl2, pH 7.5. 10% AAV6.2 cell lysate was clarified with COSP followed by Sartopore 2 XLG, 0.8/0.2 um filter. Capto AVB column was equilibrated with 20 mM Tris, 200 mM NaCl, 2 mM MgCl2, pH 7.5 for 3 column volumes (CV). Clarified cell lysate was loaded with residence time of 6 min. Column was re-equilibrated with 20 mM Tris, 200 mM NaCl, 2 mM MgCl2, pH 7.5 for 4 CV. Product was eluted from column with 50 mM citric acid, 500 mM NaCl, 2 mM MgCl2, pH 2.5. Eluate pH was adjusted to pH 8.0 with 1 M Tris/HCl, pH 8.0 AAV Titer was determined by centrifuging 10% lysate at 13,000 rpm for 10 min and collecting the supernatant. AAV titer was determined with in-house qPCR method.

XMuLV [1] = assay: Viral inactivation by 1% detergent in XMuLV-spiked BisAb cell harvest media, plaque assay (Example 1); format: cell-based, murine xenotropic leukemia virus-related virus; design: Virus concentration: unit not given here; settings: for Log10 reduction value / Virus concentration: BisAb harvest media; for Virus concentration: room temperature; for viral inactivation kinetics: in words, compared to Laureth-9
Excerpt: The viral inactivation of four detergents was examined using a CHO-derived cell harvest material for a monovalent bispecific human IgG1 monoclonal antibody. Brij L9 (Laureth-9), Myrj S25, and Brij S20 were sourced from Croda International Plc. (East Yorkshire, United Kingdom). Polidocanol 600 (Laureth-9) was sourced from Schärer & Schläpfer AG (Rothrist, Switzerland).
(§4) Harvest media was spiked with murine xenotropic leukemia virus-related virus (XMuLV) stock prior to the detergent spike.
(§5) Conditioned cell harvest media containing a monovalent bispecific human IgG1 monoclonal antibody (BisAb) was spiked with 8.5 logs of XMuLV. A sample of the virus spiked harvest media was collected and used as a hold control to determine the rate of viral inactivation without detergent.
(§6) A 10% (w/w) stock solution was made by dissolving detergent into 50 mM Tris pH 7.4. A cell harvest sample of BisAb media spiked with XMuLV was spiked to a 1% detergent concentration using an appropriate amount of the 10% stock solution. The hold control and reaction samples were incubated at room temperature. Samples were collected at 1, 10, 60, and 120 minutes and diluted 1:50 in McCoy medium to stop the viral inactivation reaction. Diluted samples and hold control were assayed for viral concentration using a plaque assay.

XMuLV [2] = assay: Viral inactivation by Laureth-9 in XMuLV-spiked BisAb or BisFusion conditioned media (Example 2); format: cell-based, murine xenotropic leukemia virus-related virus
Protocol: as §4, §5, §6
A study was performed essentially as described in Example 1 to examine the viral inactivation using detergent concentrations of 1% Brij L9 (Laureth-9, sourced from Croda International Plc., East Yorkshire, United Kingdom) and 1% Polidodecanol 600 (Laureth-9, sourced from Schärer & Schläpfer AG, Rothrist, Switzerland) for CHO-derived conditioned media for BisAb and 1% or 0.1% Brij L9 for CHO-derived conditioned media for a bispecific fusion protein (BisFusion).

AAV6.2 = assay: AAV purification on Capto AVB after cell lysis, eluate titer and infectivity; settings: for CaptoAVB Elu Infectivity / CaptoAVB Elu Titer: detergent cell lysis, cell paste lot A8489 (Brij-L9), A8102 (Triton X100)
Protocol: as §1, §2
For freeze-and-thaw lysis, the cell paste slurry was put through 2 freeze-thaw cycles at −80° C. and RT. AAV lysate was diluted to 10% slurry with 20 mM Tris, 200 mM NaCl, 2 mM MgCl2, pH 7.5. Benzonase was spiked to 10 U/ml into cell slurry mixture and mixed slowly at RT for 1 hour.
as §3

enveloped virus = settings: cited from earlier work
aquatic organisms = settings: cited from earlier work
[3] = 0 min, 0.1% detergent, BisFusion
[4] = 10 min, 0.1% detergent, BisFusion
[5] = 10 min, 1% detergent, BisFusion
[6] = 60 min, 0.1% detergent, BisFusion
[7] = 60 min, 1% detergent, BisFusion
[8] = <1 min, 0.1% detergent, BisFusion
[9] = <1 min, 1% detergent, BisFusion

For CCCCCCCCCCCCOCCOCCOCCOCCOCCOCCOCCOCCOCCO [Brij L9, 3,6,9,12,15,18,21,24,27-nonaoxanonatriacontan-1-ol], the “Lysate AAV6 Titer” value (AAV6.2 cell paste) was 11.04 Log10 vg/mL, the “cell lysis for AAV purification” value (AAV6.2 cell paste; in words, compared with Triton X-100) was “as effective for cell lysis for AAV purification as Triton X-100” and the Log10 reduction value (XMuLV [1]; 0 min) was 0 Log10. It also gave a Virus concentration (XMuLV [1]; 0 min) of 7.79, a Log10 reduction value (XMuLV [1]; 10 min) greater than 4.61 Log10 and a Virus concentration (XMuLV [1]; 10 min) of less than 3.18. The Log10 reduction value (XMuLV [1]; 60 min) was greater than 4.61 Log10, the Virus concentration (XMuLV [1]; 60 min) was less than 3.18 and the Log10 reduction value (XMuLV [1]; 120 min) was greater than 4.61 Log10. For the same molecule, the Virus concentration (XMuLV [1]; 120 min) was less than 3.18, the viral inactivation kinetics (XMuLV [1]) was “improved, desirable viral inactivation kinetics” and the Log10 reduction value (XMuLV [2]; [3]) was 0 Log10. It also gave a Virus concentration (XMuLV [2]; [3]) of 7.21, a Log10 reduction value (XMuLV [2]; 0 min, 1% detergent, BisAb) of 0 Log10 and a Virus concentration (XMuLV [2]; 0 min, 1% detergent, BisAb) of 7.00. It also gave a Log10 reduction value (XMuLV [2]; 0 min, 1% detergent, BisFusion) of 0 Log10, a Virus concentration (XMuLV [2]; 0 min, 1% detergent, BisFusion) of 7.21 and a Log10 reduction value (XMuLV [2]; [4]) greater than 3.88 Log10. The Virus concentration (XMuLV [2]; [4]) was less than 2.88, the Log10 reduction value (XMuLV [2]; 10 min, 1% detergent, BisAb) was greater than 4.07 Log10 and the Virus concentration (XMuLV [2]; 10 min, 1% detergent, BisAb) was less than 2.88. It also gave a Log10 reduction value (XMuLV [2]; [5]) greater than 3.84 Log10, a Virus concentration (XMuLV [2]; [5]) of less than 2.88 and a Log10 reduction value (XMuLV [2]; [6]) greater than 3.88 Log10. The Virus concentration (XMuLV [2]; [6]) was less than 2.88, the Log10 reduction value (XMuLV [2]; 60 min, 1% detergent, BisAb) was greater than 4.07 Log10 and the Virus concentration (XMuLV [2]; 60 min, 1% detergent, BisAb) was less than 2.88. It also gave a Log10 reduction value (XMuLV [2]; [7]) greater than 3.84 Log10, a Virus concentration (XMuLV [2]; [7]) of less than 2.88 and a Log10 reduction value (XMuLV [2]; [8]) greater than 3.88 Log10. For the same molecule, the Virus concentration (XMuLV [2]; [8]) was less than 2.88, the Log10 reduction value (XMuLV [2]; <1 min, 1% detergent, BisAb) was greater than 4.03 Log10 and the Virus concentration (XMuLV [2]; <1 min, 1% detergent, BisAb) was less than 2.88. For the same molecule, the Log10 reduction value (XMuLV [2]; [9]) was greater than 3.84 Log10, the Virus concentration (XMuLV [2]; [9]) was less than 2.88 and the “CaptoAVB Elu Infectivity” value (AAV6.2) was 10.5 Log10 TCID50/mL. For the same molecule, the “CaptoAVB Elu Titer” value (AAV6.2) was 12.2 Log10 vg/mL and the “impact on AAV infectivity” value (AAV6.2; in words) was “does not show any negative impact”.

With CCCCCCCCCCCCOCCOCCOCCOCCOCCOCCOCCOCCOCCO [Polidodecanol 600, 3,6,9,12,15,18,21,24,27-nonaoxanonatriacontan-1-ol] the Log10 reduction value (XMuLV [1]; 0 min) was 0 Log10, the Virus concentration (XMuLV [1]; 0 min) was 7.79 and the Log10 reduction value (XMuLV [1]; 10 min) was greater than 4.61 Log10. For the same molecule, the Virus concentration (XMuLV [1]; 10 min) was less than 3.18, the Log10 reduction value (XMuLV [1]; 60 min) was greater than 4.61 Log10 and the Virus concentration (XMuLV [1]; 60 min) was less than 3.18. The Log10 reduction value (XMuLV [1]; 120 min) was greater than 4.61 Log10, the Virus concentration (XMuLV [1]; 120 min) was less than 3.18 and the Log10 reduction value (XMuLV [1]; <1 min) was greater than 4.61 Log10. It also gave a Log10 reduction value (XMuLV [2]; 0 min, 1% detergent, BisAb) of 0 Log10, a Virus concentration (XMuLV [2]; 0 min, 1% detergent, BisAb) of 7.00 and a Log10 reduction value (XMuLV [2]; 10 min, 1% detergent, BisAb) greater than 4.07 Log10. The Virus concentration (XMuLV [2]; 10 min, 1% detergent, BisAb) was less than 2.88, the Log10 reduction value (XMuLV [2]; 60 min, 1% detergent, BisAb) was greater than 4.07 Log10 and the Virus concentration (XMuLV [2]; 60 min, 1% detergent, BisAb) was less than 2.88. It also gave a Log10 reduction value (XMuLV [2]; <1 min, 1% detergent, BisAb) greater than 4.03 Log10 and a Virus concentration (XMuLV [2]; <1 min, 1% detergent, BisAb) of less than 2.88.

For Triton X-100 [reference compound], the enveloped virus inactivation (enveloped virus; diverse set of experimental conditions) is listed as “greater than 4 logs”, the “Lysate AAV6 Titer” value (AAV6.2 cell paste) is listed as 11.03 Log10 vg/mL and the “CaptoAVB Elu Infectivity” value (AAV6.2) is listed as 9.8 Log10 TCID50/mL. For the same molecule, the “CaptoAVB Elu Titer” value (AAV6.2) was 11.8 Log10 vg/mL and the endocrine disruption (aquatic organisms) was “can behave as endocrine disrupters in aquatic organisms”.

In the case of CC(C)(C)CC(C)(C)c1ccc(O)cc1 [octlyphenol], the endocrine disruption (aquatic organisms) is given as “can behave as endocrine disrupters in aquatic organisms”.

For “polyoxyethylene (23) lauryl ether [Brij 35]”, the “effectiveness for viral inactivation” value (enveloped virus; finding of Conley et al. (2017)) is listed as “not effective for viral inactivation”.

“polyoxyethylene (20) stearyl ether [Brij S20, reference compound]” gave a Log10 reduction value (XMuLV [1]; 0 min) of 0 Log10, a Virus concentration (XMuLV [1]; 0 min) of 7.79 and a Log10 reduction value (XMuLV [1]; 10 min) of 2.90 Log10. It also gave a Virus concentration (XMuLV [1]; 10 min) of 4.89, a Log10 reduction value (XMuLV [1]; 60 min) greater than 4.61 Log10 and a Virus concentration (XMuLV [1]; 60 min) of less than 3.18. The Log10 reduction value (XMuLV [1]; 120 min) was greater than 4.61 Log10, the Virus concentration (XMuLV [1]; 120 min) was less than 3.18 and the Log10 reduction value (XMuLV [1]; <1 min) was 0.89 Log10. For the same molecule, the Virus concentration (XMuLV [1]; <1 min) was 6.9 and the viral inactivation kinetics (XMuLV [1]) was “significantly slower”.
